Reference: patent publication US11883410B2, “Preventative and therapeutic agents for sarcopenia” (NATIONAL UNIVERSITY CORPORATION TOKYO UNIVERSITY OF …, priority 2018, dated 2024)
Where two headings read alike, the source gives them in different places.

Key:
Type in all cases: in vivo
[1] = tested on: tail-suspended mice (disuse muscle atrophy of lower limbs); assay: Evaluation of inhibition of muscular atrophy in tail-suspended mice, Part 1; conditions: feed containing 0.01, 0.1 or 0.3 mass % for 2 weeks during tail-suspension; vs control tail-suspension group
Procedure: Eight-week-old C57/BL6J male mice (Japan SLC, Inc., Shizuoka, Japan) were subjected to tail-suspension to obtain mice model with disuse muscle atrophy of their lower limbs.
The tail-suspension was performed according to the description in Skelet Muscle. 2015; 5:34. […] Tail-suspension is known to cause skeletal muscle mass loss and muscle strength loss in the hind limbs, whereby an experimental model with disuse muscle atrophy, which is one type of sarcopenia, can be produced.
During the period of tail-suspension, feed containing 0.01, 0.1, or 0.3 mass % compound (1) was fed for 2 weeks (compound (1) administration groups). […] The number of tests was n=8 in each group.
(§1) Two weeks after the initiation of the experiment (the initiation of the tail-suspension and the initiation of feeding of the feed that contained the compound), micro-CT (micro-computed tomography) imaging of the mouse hind limbs was performed. The muscle volume at the periphery of the tibia (triceps surae muscle) was measured using 3D volumetric analysis software. Micro-CT imaging was performed using a microfocus X-ray CT system (micro-CT: SMX-90T manufactured by Shimadzu Corporation).
The midpoint of the fibula in the lower limb of each mouse was determined using 3D images created from the micro-CT images, and the volume of total muscle mass at the measurement area starting from the midpoint was measured. […]

[2] = tested on: tail-suspended mice (disuse muscle atrophy of lower limbs); assay: Inhibition of muscular atrophy in tail-suspended mice, Part 3 (feeding started one week after tail-suspension); conditions: feed containing 0.3 mass % for 2 weeks starting one week after tail-suspension; vs control tail-suspension group
Procedure: (§2) Eight-week-old C57/BL6J male mice (Japan SLC, Inc., Shizuoka, Japan) were subjected to the tail-suspension to obtain mice model with disuse muscle atrophy of their lower limbs.
One week after tail-suspension, feed that contained 0.3 mass % compound (1) was fed for 2 weeks (compound (1) administration group). […] The number of tests was n=8 in each group.
Micro-CT imaging of the mouse hind limbs was performed before tail suspension, 1 week after suspension, 2 weeks after suspension, and 3 weeks after suspension. The muscle volume at the periphery of the tibia (triceps surae muscle) was measured using 3D volumetric analysis software. Micro-CT imaging was performed using a microfocus X-ray CT system (micro-CT: SMX-90T, manufactured by Shimadzu Corporation).
The midpoint of the fibula in the lower limb of each mouse was determined using 3D images created from the micro-CT images, and the volume of total muscle mass at the measurement area starting from the midpoint was measured.
Furthermore, the gastrocnemius muscle was collected from the mouse hind limb three weeks after the tail-suspension, and the wet mass (muscle mass) was measured.
(§3) A Student's t-test was used for the significant difference test.

[3] = Evaluation of blood kinetics of compound in mice (mixed feed); conditions: for Cmax / AUC(0-t): male, mouse, po, C57BL/6 mice, plasma, LC/MS; for AUC(0-t): read-out: AUC0-24 h
Procedure: Mixed feed that contained 0.01, 0.1, or 0.3 mass % compound (1) were fed to 7-week-old C57BL/6 mice (male, Charles River Japan Ltd., weight: 20.7-23.7 g) for 13 days.
Blood was collected from the face by using an animal lancet at 10 a.m., 1, 5, and 9 p.m. on day 12 and 10 a.m. on day 13.
About 75 μL of blood was collected into a heparin-coated hematocrit tube. The concentration of the compound in the plasma after centrifugation was measured using liquid chromatography-mass spectrometry (LC/MS).
Since a mouse with a body weight of about 20 g consumes about 4 g of the feed per day (spilling of food is not assumed), the daily intake of the compound is estimated to be 0.4 mg (0.01 mass % mixed feed), 4 mg (0.1 mass % mixed feed), or 12 mg (0.3 mass % mixed feed). The body weight conversion values were 20 mg/kg (0.01 mass % mixed feed), 200 mg/kg (0.1 mass % mixed feed), and 600 mg/kg (0.3 mass % mixed feed).

[4] = tested on: tail-suspended mice (disuse muscle atrophy of lower limbs); assay: Evaluation of inhibition of muscular atrophy in tail-suspended mice, Part 2; conditions: feed containing 0.01 mass % for 2 weeks during tail-suspension; vs control tail-suspension group
Procedure: as §2
While the tail-suspension was performed, feed containing 0.01 mass % compound (1), compound (2), compound (3), compound (4), or compound (5) was fed for 2 weeks (compound (1) administration group, compound (2) administration group, compound (3) administration group, compound (4) administration group, and compound (5) administration group). […] The number of tests was n=8 in each group.
as §1, with “feeding with” for “feeding of”, “the compounds),” for “the compound),”, “micro-CT” for “micro-CT (micro-computed tomography)”, “(micro-CT: SMX-90T,” for “(micro-CT: SMX-90T”
The midpoint of the fibula in the lower limb of each mouse was determined using 3D images created from the micro-CT images, and the volume of total muscle mass at the measurement area starting from the midpoint was measured. […] The rate of increase was calculated according to the following: (compound administration group−control tail-suspension group)/(normal breeding group−control tail-suspension group)×100.
Furthermore, the gastrocnemius muscle was collected from the mouse hind limb after the tail-suspension, and the wet mass (muscle mass) was measured. […] The rate of increase was calculated according to the following: (compound administration group−control tail-suspension group)/(normal breeding group−control tail-suspension group)×100.
as §3

[5] = 20 mg/kg, 0.01% mixed feed for 13 days
[6] = 200 mg/kg, 0.1% mixed feed for 13 days
[7] = 600 mg/kg, 0.3% mixed feed for 13 days

Cmax [3, 5] | AUC(0-t) [3, 5] | Cmax [3, 6] | AUC(0-t) [3, 6] | Cmax [3, 7] | AUC(0-t) [3, 7] | SMILES | muscle volume at the periphery of the tibia (triceps surae muscle), micro-CT (FIG. 2) [1] | wet mass (muscle mass) of gastrocnemius, soleus, tibialis anterior and extensor digitorum longus muscles (FIG. 3) [1] | muscle volume change at the periphery of the tibia (triceps surae muscle), micro-CT (FIG. 11) [2] | wet mass (muscle mass) of gastrocnemius muscle three weeks after tail-suspension (FIG. 12) [2] | compound concentration in blood ([3]; mixed feed in the range of 0.01 mass % to 0.3 mass %) | muscle volume at the periphery of the tibia (triceps surae muscle), micro-CT (FIG. 6, FIG. 7) [4] | wet mass (muscle mass) of gastrocnemius muscle (FIG. 8, FIG. 9) [4]
230 nM | 4.29 µM·h | 2210 nM | 38.3 µM·h | 6410 nM | 104 µM·h | Cn1cccc1C(=O)N1CCN(C(=O)Nc2ccc(N3CCC(C(=O)N4CCOCC4)CC3)cc2)CC1 [compound (1), 4-{(1-methyl-1H-pyrrol-2-yl)carbonyl}-N-[4-{4-(4-morpholinylcarbonyl)-1-piperidinyl}phenyl]-1-piperazine carboxamide] | significant suppression of muscle mass loss | a tendency to suppress a decrease in the muscle amount in all of the hind limb muscles | significantly higher muscle amount at week 2 and week 3 | significant therapeutic effect on the muscle amount | dose-dependent increase in the compound concentration in blood | significant suppression of muscle mass loss | significant suppression of the decrease in the muscle amount
 |  |  |  |  |  | c1ccc(C(OC2CCN(CCCc3nnn[nH]3)CC2)c2ccccc2)cc1 [compound (2), 4-(diphenylmethoxy)-1-[3-(2H-tetrazol-5-yl)propyl]piperidine] |  |  |  |  |  | did not show significant suppression of muscle mass loss although a tendency toward suppression was observed | did not show a significant difference although a tendency toward suppression of the decrease in the muscle amount was observed
 |  |  |  |  |  | O=C(Nc1ccc(N2CCC(CCn3cncn3)C2)cc1)N1CCC(=Cc2ccccn2)CC1 (stereo not shown) [compound (4), N-(4-(3-(2-(1H-1,2,4-triazol-1-yl)ethyl)pyrrolidin-1-yl)phenyl)-4-(pyridin-2-ylmethylene)piperidine-1-carboxamide] |  |  |  |  |  | significant suppression of muscle mass loss | significant suppression of the decrease in the muscle amount
 |  |  |  |  |  | Cn1cccc1C(=O)N1CCN(C(=O)NC2CCN(c3ccc(CCn4ccnn4)cc3)CC2)CC1 [compound (5), 4-((1-methylpyrrol-2-yl)-carbonyl)-N-(1-(4-(2-(1H-1,2,3-triazol-1-yl)-ethyl)-phenyl)-piperidin-4-yl)-1-piperazine carboxamide] |  |  |  |  |  | significant suppression of muscle mass loss | significant suppression of the decrease in the muscle amount
